{"source": "patent US8765791B2", "about": "“Method of treating cancer using a neuropeptide Y 5R (NP Y5R) antagonist” (University Health Network, priority 2008, dated 2014)", "key": {"[1]": {"tested_on": "Breast cancer cells, MDA MB 468", "experiment": "breast cancer xenograft model (Example 11)", "assay_type": "in vivo, SCID mice", "settings": "10 mg/kg i.p. 3/week, approximately 4 weeks", "method": "Breast cancer cells, MDA MB 468 (12 million), were injected subcutaneously (s.c.) on the neck of SCID mice (CB17, female, 4-6 weeks old) (Charles River, Wilmington, Mass.). The mice were divided into four groups, 5 mice for each group. The treatments were started when the tumor volume reached about 100 mm^3, day 22 after tumor implantation. […] The tumor sizes were monitored every 3 or 4 days. […] (FIG. 12)"}, "[2]": {"tested_on": "Breast cancer cells, MDA MB 468", "experiment": "breast cancer xenograft model, MK0557 and 5-FU (Example 15)", "assay_type": "in vivo, CB17-SCID", "settings": "5-FU alone, 30 mg/kg ip q.d.×5 days", "method": "Breast cancer cells, MDA MB 468, were injected into CB17-SCID. The treatments were started day 14 after tumor implantation. […] Tumor volume and tumor growth were monitored during the experiment."}, "[3]": {"tested_on": "Hodgkin Lymphoma cells, HD-MYZ", "experiment": "Hodgkin's lymphoma xenograft model, MK-0557 and 200464 (Example 16)", "assay_type": "in vivo", "settings": "for inhibition rate (tumor volume) / inhibition rate (tumor weight): versus vehicle", "from_the_text": "Hodgkin lymphoma cells, HD-MYZ, were implanted in NOD-SCID mice, female, 4-6 weeks from Jackson's Laboratory (Maine). The treatments were started day 6 after tumor implantation. The mice were divided to six groups, 4-5 mice from each group. The treatment started with a tumor volume of about 70 mm3 after tumor implantation."}, "[4]": {"tested_on": "Hodgkin Lymphoma cells, HD-MYZ", "experiment": "Hodgkin lymphoma xenograft model (Example 12)", "assay_type": "in vivo, NOD-SCID mice", "settings": "5 mg/kg i.p. 1/week, approximately 2 weeks", "from_the_text": "Hodgkin lymphoma cells, HD-MYZ (1 million), were implanted s.c. on the right flank of NOD-SCID mice (Cat#001303, female, 4-6 weeks from Jackson laboratories, Bar Harbor, Me.). The mice were divided into four groups, 5 mice for each group. […] The tumor growth was monitored during the experiment. […] (FIG. 13)"}, "[5]": {"tested_on": "Hodgkin Lymphoma cells, HD-MYZ", "experiment": "Hodgkin lymphoma xenograft model, MK0557 vs AVASTIN (Example 14)", "assay_type": "in vivo, NOD-SCID mice", "settings": "5 mg/kg i.p. 1/week×3 weeks", "from_the_text": "Hodgkin lymphoma cells, HD-MYZ, were implanted in NOD-SCID mice. […] Tumor volume and tumor growth were monitored during the experiment."}, "[6]": {"settings": "group 2: 200464 20 mg/kg i.p. 3 times for each week"}, "[7]": {"settings": "group 3: 200464 40 mg/kg i.p. 3 times for each week"}}, "data": [{"compound": "O=c1[nH]cc(F)c(=O)[nH]1", "note": "[5-FU, 5-fluorouracil]", "values": [{"measurement": "tumor growth", "setting": "[1]", "result": "inhibited tumor growth"}, {"measurement": "Mean Tumor Volume", "setting": "[2]", "result": "434.44±56.63", "unit": "mm^3"}, {"measurement": "Mean Tumor Weight", "setting": "[2]", "result": "0.1892 ± 0.026", "unit": "g"}, {"measurement": "inhibition rate (tumor volume)", "setting": "[2]; versus vehicle", "result": 32.35, "unit": "%"}, {"measurement": "inhibition rate (tumor weight)", "setting": "[2]; versus vehicle", "result": 26.55, "unit": "%"}]}, {"compound": "CC[C@@H]1C(=O)N(C)c2cnc(Nc3ccc(C(=O)NC4CCN(C)CC4)cc3OC)nc2N1C1CCCC1", "note": "[compound 200464]", "values": [{"measurement": "Mean Tumor Volume", "setting": "[3]; [6]", "result": "754.55+/−158.32 mm^3"}, {"measurement": "Mean Tumor Weight", "setting": "[3]; [6]", "result": "0.8788 ± 0.2674", "unit": "g"}, {"measurement": "inhibition rate (tumor volume)", "setting": "[3]; [6]", "result": 62.26, "unit": "%"}, {"measurement": "inhibition rate (tumor weight)", "setting": "[3]; [6]", "result": 5.42, "unit": "%"}, {"measurement": "Mean Tumor Volume", "setting": "[3]; [7]", "result": "565.75+/−176.13 mm^3"}, {"measurement": "Mean Tumor Weight", "setting": "[3]; [7]", "result": "0.5472 ± 0.2097", "unit": "g"}, {"measurement": "inhibition rate (tumor volume)", "setting": "[3]; [7]", "result": 49.66, "unit": "%"}, {"measurement": "inhibition rate (tumor weight)", "setting": "[3]; [7]", "result": 41.11, "unit": "%"}, {"measurement": "tolerability of the doses by the mice", "setting": "[3]; mouse, in vivo", "result": "well tolerated"}]}, {"compound": "bevacizumab [AVASTIN®]", "values": [{"measurement": "tumor growth", "setting": "[4]", "result": "inhibited tumor growth"}, {"measurement": "Mean Tumor Volume", "setting": "[5]", "result": "672.53±85.56", "unit": "mm^3"}, {"measurement": "Mean Tumor Weight", "setting": "[5]", "result": "0.33 ± 0.03", "unit": "g"}, {"measurement": "inhibition rate (tumor volume)", "setting": "[5]; versus vehicle", "result": 74.14, "unit": "%"}, {"measurement": "inhibition rate (tumor weight)", "setting": "[5]; versus vehicle", "result": 86.96, "unit": "%"}]}]}
